Source: ChEMBL document CHEMBL1909046, “DrugMatrix in vitro pharmacology data”

How the values were obtained:
Acetylcholinesterase = Acetylcholinesterase (Homo sapiens, UniProt P22303); assay: DRUGMATRIX: Acetylcholinesterase enzyme inhibition (substrate: acetylthiocholine); format: cell-based, HEK293; conditions: Not Active = under 50% inhibition at 10 µM
[1] = target: T1, C-X-C chemokine receptor type 2 (Homo sapiens, UniProt P25025); format: cell membranes, CHO-K1, Membrane; conditions: cho-k1; note: in other assays of this panel Not Active means under 50% inhibition at 10 µM
T1 sequence (P25025 whole entry): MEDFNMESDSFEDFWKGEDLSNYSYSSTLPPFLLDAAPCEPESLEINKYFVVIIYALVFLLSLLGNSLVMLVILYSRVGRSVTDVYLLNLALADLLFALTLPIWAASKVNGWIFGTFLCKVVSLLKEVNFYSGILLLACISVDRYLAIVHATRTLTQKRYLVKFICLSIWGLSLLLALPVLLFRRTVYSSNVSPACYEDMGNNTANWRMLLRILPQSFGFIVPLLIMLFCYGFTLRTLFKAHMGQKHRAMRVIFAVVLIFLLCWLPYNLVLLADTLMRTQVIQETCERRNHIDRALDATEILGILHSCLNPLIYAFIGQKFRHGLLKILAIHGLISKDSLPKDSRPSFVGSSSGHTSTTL

[2] = target: Protein kinase C alpha type (Homo sapiens, UniProt P17252); format: cell-based; conditions: sf9;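 note: inhibition of PKCalpha kinase activity measured in an enzyme assay with histone as the phosphorylation substrate; in other assays of this panel Not Active means under 50% inhibition at 10 µM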
[3] = DRUGMATRIX: Platelet-Derived Growth Factor (PDGF) radioligand binding (ligand: [125I] PDGF); format: cell-based; conditions: nih3t3; Not Active = under 50% inhibition at 10 µM
[4] = DRUGMATRIX: Glutamate, NMDA, Phencyclidine radioligand binding (ligand: [3H] TCP); format: cell membranes, Rattus norvegicus, Wistar, Cerebral cortex, Membrane; conditions: Not Active = under 50% inhibition at 10 µM
Calcitonin receptor = target: T2, Calcitonin receptor (Homo sapiens, UniProt P30988); format: cell membranes, Membrane; conditions: t47d; note: in other assays of this panel Not Active means under 50% inhibition at 10 µM
T2 sequence (P30988 whole entry): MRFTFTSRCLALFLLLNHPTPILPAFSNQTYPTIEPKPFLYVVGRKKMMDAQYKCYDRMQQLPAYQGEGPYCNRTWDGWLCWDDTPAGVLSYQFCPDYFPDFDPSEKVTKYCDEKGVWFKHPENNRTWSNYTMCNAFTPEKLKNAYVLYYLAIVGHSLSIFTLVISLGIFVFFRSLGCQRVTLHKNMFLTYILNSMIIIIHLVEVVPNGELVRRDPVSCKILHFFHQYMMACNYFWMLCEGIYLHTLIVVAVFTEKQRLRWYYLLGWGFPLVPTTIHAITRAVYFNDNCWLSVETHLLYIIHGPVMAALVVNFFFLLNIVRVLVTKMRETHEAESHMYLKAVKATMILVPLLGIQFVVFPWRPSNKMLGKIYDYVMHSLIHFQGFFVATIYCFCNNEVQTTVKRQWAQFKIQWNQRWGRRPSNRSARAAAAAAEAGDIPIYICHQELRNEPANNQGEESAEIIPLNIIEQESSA

Caspase-1 = target: T3, Caspase-1 (Homo sapiens, UniProt P29466); design: species or system Escherichia coli;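 note: Caspase-1 enzyme inhibition assay with a peptide substrate; in other assays of this panel Not Active means under 50% inhibition at 10 µM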
T3 sequence (P29466 whole entry): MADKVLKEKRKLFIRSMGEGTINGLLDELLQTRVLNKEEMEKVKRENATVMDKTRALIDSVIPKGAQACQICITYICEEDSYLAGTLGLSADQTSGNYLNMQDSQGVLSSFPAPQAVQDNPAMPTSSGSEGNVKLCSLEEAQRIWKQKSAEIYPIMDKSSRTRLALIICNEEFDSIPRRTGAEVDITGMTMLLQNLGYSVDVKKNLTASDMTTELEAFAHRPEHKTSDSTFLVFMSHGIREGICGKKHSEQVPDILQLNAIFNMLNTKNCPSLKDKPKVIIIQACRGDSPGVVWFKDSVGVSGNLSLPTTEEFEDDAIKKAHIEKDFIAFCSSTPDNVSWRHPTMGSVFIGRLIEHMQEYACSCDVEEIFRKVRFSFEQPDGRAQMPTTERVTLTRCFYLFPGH

Sequence of Acetylcholinesterase (P22303 whole entry): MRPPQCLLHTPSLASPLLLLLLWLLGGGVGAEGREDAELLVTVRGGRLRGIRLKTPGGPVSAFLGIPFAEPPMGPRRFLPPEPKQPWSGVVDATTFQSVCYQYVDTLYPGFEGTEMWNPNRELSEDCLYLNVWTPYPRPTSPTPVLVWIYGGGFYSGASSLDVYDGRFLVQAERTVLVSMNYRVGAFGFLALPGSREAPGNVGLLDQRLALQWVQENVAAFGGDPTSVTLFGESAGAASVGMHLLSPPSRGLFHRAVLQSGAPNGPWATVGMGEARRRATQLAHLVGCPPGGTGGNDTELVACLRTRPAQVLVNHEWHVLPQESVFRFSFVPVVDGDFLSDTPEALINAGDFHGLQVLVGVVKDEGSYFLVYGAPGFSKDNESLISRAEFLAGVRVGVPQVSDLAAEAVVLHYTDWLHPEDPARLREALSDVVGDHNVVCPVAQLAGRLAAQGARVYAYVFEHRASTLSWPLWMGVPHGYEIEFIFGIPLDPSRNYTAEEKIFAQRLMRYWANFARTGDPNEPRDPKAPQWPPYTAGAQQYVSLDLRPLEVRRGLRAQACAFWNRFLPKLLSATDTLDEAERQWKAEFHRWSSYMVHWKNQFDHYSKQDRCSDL

Row | Molecule | IC50 (Acetylcholinesterase; hek293) | IC50 [1] | IC50 [2] | IC50 [3] | Ki [3] | IC50 [4] | Ki [4] | IC50 (Calcitonin receptor) | IC50 (Caspase-1) | IC50 (Acetylcholinesterase; read-out: IC50) [µM] | Ki (Acetylcholinesterase; hek293) | Ki [1] | Ki [2] | Ki (Calcitonin receptor) | Ki (Caspase-1)
1 | Cc1nnc(NS(=O)(=O)c2ccc(N)cc2)s1 [SULFAMETHIZOLE] | Not Active | Not Active | Not Active | Not Active | Not Active | Not Active | Not Active | Not Active | Not Active | – | – | – | – | – | –
2 | Cc1cnc(NC(=O)C2=C(O)c3ccccc3S(=O)(=O)N2C)s1 [MELOXICAM] | Not Active | Not Active | Not Active | Not Active | Not Active | Not Active | Not Active | Not Active | Not Active | – | – | – | – | – | –
3 | CC1=C(/C=C/C(C)=C/C=C/C(C)=C/C(=O)O)C(C)(C)CCC1 [TRETINOIN] | Not Active | Not Active | Not Active | Not Active | Not Active | Not Active | Not Active | Not Active | Not Active | – | – | – | – | – | –
4 | Cc1ccc(S(=O)(=O)NC(=O)NN2CCCCCC2)cc1 [TOLAZAMIDE] | Not Active | Not Active | Not Active | Not Active | Not Active | Not Active | Not Active | Not Active | Not Active | – | – | – | – | – | –
5 | Cc1cccc(C)c1NC(=O)C(C)N (stereo not drawn) [TOCAINIDE] | Not Active | Not Active | Not Active | Not Active | Not Active | Not Active | Not Active | Not Active | Not Active | – | – | – | – | – | –
6 | COC(=O)Nc1nc2ccc(C(=O)c3ccccc3)cc2[nH]1 [MEBENDAZOLE] | Not Active | Not Active | Not Active | Not Active | Not Active | Not Active | Not Active | Not Active | Not Active | – | – | – | – | – | –
7 | O=C1CC[C@@]2(O)[C@H]3Cc4ccc(O)c5c4[C@@]2(CCN3CC2CC2)[C@H]1O5 [NALTREXONE] | Not Active | Not Active | Not Active | Not Active | Not Active | Not Active | Not Active | Not Active | Not Active | – | – | – | – | – | –
8 | CCN(CC)CCNC(=O)c1cc(Cl)c(N)cc1OC [METOCLOPRAMIDE] | Not Active | Not Active | Not Active | Not Active | Not Active | Not Active | Not Active | Not Active | Not Active | – | – | – | – | – | –
9 | CCOc1cc(N)c(Cl)cc1C(=O)NCC1CN(Cc2ccc(F)cc2)CCO1 (stereo not drawn) [MOSAPRIDE] | Not Active | Not Active | Not Active | Not Active | Not Active | Not Active | Not Active | Not Active | Not Active | – | – | – | – | – | –
10 | Cc1ccc(Cl)c(Nc2ccccc2C(=O)O)c1Cl [MECLOFENAMIC ACID] | Not Active | Not Active | Not Active | Not Active | Not Active | Not Active | Not Active | Not Active | Not Active | – | – | – | – | – | –
11 | CN1C[C@H](CNC(=O)OCc2ccccc2)C[C@@H]2c3cccc4c3c(cn4C)C[C@H]21 [METERGOLINE] | – | Not Active | Not Active | Not Active | Not Active | Not Active | Not Active | Not Active | Not Active | 1.34 | – | – | – | – | –
12 | O=[As][O-].[Na+] [SODIUM ARSENITE] | Not Active | Not Active | Not Active | Not Active | Not Active | Not Active | Not Active | Not Active | Not Active | – | – | – | – | – | –
13 | CC(=O)O[C@]1(C(C)=O)CC[C@H]2[C@@H]3C[C@H](C)C4=CC(=O)CC[C@]4(C)[C@H]3CC[C@@]21C [MEDROXYPROGESTERONE ACETATE] | Not Active | Not Active | Not Active | Not Active | Not Active | Not Active | Not Active | Not Active | Not Active | – | – | – | – | – | –
14 | CCN1CCCC1CNC(=O)c1cc(S(N)(=O)=O)ccc1OC (stereo not drawn) [SULPIRIDE] | Not Active | Not Active | Not Active | Not Active | Not Active | Not Active | Not Active | Not Active | Not Active | – | – | – | – | – | –
15 | CC(O)C(=O)O (stereo not drawn) [LACTIC ACID] | Not Active | Not Active | Not Active | Not Active | Not Active | Not Active | Not Active | Not Active | Not Active | – | – | – | – | – | –
16 | CC(Cl)(Cl)Cl [TRICHLOROETHANE] | Not Active | Not Active | Not Active | Not Active | Not Active | Not Active | Not Active | Not Active | Not Active | – | – | – | – | – | –
17 | CCC(C)(C)C(=O)O[C@H]1C[C@@H](C)C=C2C=C[C@H](C)[C@H](CC[C@@H]3C[C@@H](O)CC(=O)O3)[C@H]21 [SIMVASTATIN] | Not Active | Not Active | Not Active | Not Active | Not Active | Not Active | Not Active | Not Active | Not Active | – | – | – | – | – | –
18 | Cc1ccnc(NS(=O)(=O)c2ccc(N)cc2)n1 [SULFAMERAZINE] | Not Active | Not Active | Not Active | Not Active | Not Active | Not Active | Not Active | Not Active | Not Active | – | – | – | – | – | –
19 | CCN(CC)N=O [N-NITROSODIETHYLAMINE] | Not Active | Not Active | Not Active | Not Active | Not Active | Not Active | Not Active | Not Active | Not Active | – | – | – | – | – | –
20 | CC#C[C@]1(O)CC[C@H]2[C@@H]3CCC4=CC(=O)CCC4=C3[C@@H](c3ccc(N(C)C)cc3)C[C@@]21C [MIFEPRISTONE] | Not Active | Not Active | Not Active | Not Active | Not Active | Not Active | Not Active | Not Active | Not Active | – | – | – | – | – | –
21 | LEAD(IV) ACETATE | Not Active | Not Active | Not Active | Not Active | Not Active | Not Active | Not Active | Not Active | Not Active | – | Not Active | Not Active | Not Active | Not Active | Not Active
22 | O=C(OC[C@H]1O[C@@H](OC(=O)c2cc(O)c(O)c(OC(=O)c3cc(O)c(O)c(O)c3)c2)[C@H](OC(=O)c2cc(O)c(O)c(OC(=O)c3cc(O)c(O)c(O)c3)c2)[C@@H](OC(=O)c2cc(O)c(O)c(OC(=O)c3cc(O)c(O)c(O)c3)c2)[C@@H]1OC(=O)c1cc(O)c(O)c(OC(=O)c2cc(O)c(O)c(O)c2)c1)c1cc(O)c(O)c(OC(=O)c2cc(O)c(O)c(O)c2)c1 [TANNIC ACID] | Not Active | Not Active | Not Active | Not Active | Not Active | Not Active | Not Active | Not Active | Not Active | – | – | – | – | – | –
